Experimental data as given in PubChem BioAssay AID1919006 (Molecular Pharmacology Branch, DTP, NCI, 2023).

Tested on: 885512-296-R-J2-PDC complex spheroid growth, % test/control
Assay: Anticancer human tumor 885512-296-R-J2-PDC patient-derived breast carcinoma cell line growth inhibition [AhR]
Settings: for IC50: curve of first compound; for viability, T/C: stronger effect = lower value
Procedure, shortened: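 Complex tumor spheroids co-cultured with HUVEC and human MSC stroma; AhR antagonists tested in combination with standard-of-care and investigational agents. Top concentration at or near clinical Cmax (else 10 microM), half-log dilutions; growth expressed as percent test/control.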

[1] = second compound 0.1 µM, first compound 0.0316 µM
[2] = second compound 0.1 µM, first compound 0.1 µM
[3] = second compound 0.1 µM, first compound 0.316 µM
[4] = second compound 0.1 µM, first compound 1 µM
[5] = second compound 0.1 µM, first compound 3.16 µM
[6] = second compound 0.1 µM, first compound 10 µM
[7] = second compound 0.316 µM, first compound 0.0316 µM
[8] = second compound 0.316 µM, first compound 0.1 µM
[9] = second compound 0.316 µM, first compound 0.316 µM
[10] = second compound 0.316 µM, first compound 1 µM
[11] = second compound 0.316 µM, first compound 3.16 µM
[12] = second compound 0.316 µM, first compound 10 µM
[13] = second compound 1 µM, first compound 0.0316 µM
[14] = second compound 1 µM, first compound 0.1 µM
[15] = second compound 1 µM, first compound 0.316 µM
[16] = second compound 1 µM, first compound 1 µM
[17] = second compound 1 µM, first compound 3.16 µM
[18] = second compound 1 µM, first compound 10 µM
[19] = second compound 3.16 µM, first compound 0.0316 µM
[20] = second compound 3.16 µM, first compound 0.1 µM
[21] = second compound 3.16 µM, first compound 0.316 µM
[22] = second compound 3.16 µM, first compound 1 µM
[23] = second compound 3.16 µM, first compound 3.16 µM
[24] = second compound 3.16 µM, first compound 10 µM
[25] = second compound 10 µM, first compound 0.0316 µM
[26] = second compound 10 µM, first compound 0.1 µM
[27] = second compound 10 µM, first compound 0.316 µM
[28] = second compound 10 µM, first compound 1 µM
[29] = second compound 10 µM, first compound 3.16 µM
[30] = second compound 10 µM, first compound 10 µM
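Further: spheroids exposed to compounds for seven days.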

CC1(C)CCC(CN2CCN(c3ccc(C(=O)NS(=O)(=O)c4ccc(NCC5CCOCC5)c([N+](=O)[O-])c4)c(Oc4cnc5[nH]ccc5c4)c3)CC2)=C(c2ccc(Cl)cc2)C1 + Cc1ccccc1N=Nc1ccc(NC(=O)c2ccnn2C)c(C)c1
IC50 (second compound 0.1 µM): 4210 nM
IC50 (second compound 0.316 µM): 4240 nM
IC50 (second compound 1 µM): 4140 nM
IC50 (second compound 3.16 µM): 3050 nM
IC50 (second compound 10 µM): 288 nM
viability, T/C [1]: 107%
viability, T/C [2]: 85.4%
viability, T/C [3]: 103%
viability, T/C [4]: 90.2%
viability, T/C [5]: 61.4%
viability, T/C [6]: 16.1%
viability, T/C [7]: 109%
viability, T/C [8]: 116%
viability, T/C [9]: 102%
viability, T/C [10]: 85.1%
viability, T/C [11]: 63.7%
viability, T/C [12]: 15.8%
viability, T/C [13]: 97.9%
viability, T/C [14]: 97.8%
viability, T/C [15]: 94.2%
viability, T/C [16]: 86%
viability, T/C [17]: 60.4%
viability, T/C [18]: 15.5%
viability, T/C [19]: 93.8%
viability, T/C [20]: 83.1%
viability, T/C [21]: 83.3%
viability, T/C [22]: 73.3%
viability, T/C [23]: 48.3%
viability, T/C [24]: 14.9%
viability, T/C [25]: 46.4%
viability, T/C [26]: 53.8%
viability, T/C [27]: 53.2%
viability, T/C [28]: 44.6%
viability, T/C [29]: 40.2%
viability, T/C [30]: 15.7%

CCN(c1cc(-c2ccc(CN3CCOCC3)cc2)cc(C(=O)NCc2c(C)cc(C)[nH]c2=O)c1C)C1CCOCC1 + Cc1ccccc1N=Nc1ccc(NC(=O)c2ccnn2C)c(C)c1
IC50 (second compound 0.1 µM): > 3000 nM
IC50 (second compound 0.316 µM): > 3000 nM
IC50 (second compound 1 µM): > 3000 nM
IC50 (second compound 3.16 µM): > 3000 nM
IC50 (second compound 10 µM): 114 nM
viability, T/C (second compound 0.1 µM, first compound 0.00949 µM): 116%
viability, T/C (second compound 0.1 µM, first compound 0.03 µM): 111%
viability, T/C (second compound 0.1 µM, first compound 0.0949 µM): 104%
viability, T/C (second compound 0.1 µM, first compound 0.3 µM): 80.5%
viability, T/C (second compound 0.1 µM, first compound 0.949 µM): 78.8%
viability, T/C (second compound 0.1 µM, first compound 3 µM): 79%
viability, T/C (second compound 0.316 µM, first compound 0.00949 µM): 117%
viability, T/C (second compound 0.316 µM, first compound 0.03 µM): 110%
viability, T/C (second compound 0.316 µM, first compound 0.0949 µM): 94.5%
viability, T/C (second compound 0.316 µM, first compound 0.3 µM): 89.8%
viability, T/C (second compound 0.316 µM, first compound 0.949 µM): 80.8%
viability, T/C (second compound 0.316 µM, first compound 3 µM): 68.5%
viability, T/C (second compound 1 µM, first compound 0.00949 µM): 106%
viability, T/C (second compound 1 µM, first compound 0.03 µM): 108%
viability, T/C (second compound 1 µM, first compound 0.0949 µM): 108%
viability, T/C (second compound 1 µM, first compound 0.3 µM): 87.2%
viability, T/C (second compound 1 µM, first compound 0.949 µM): 71%
viability, T/C (second compound 1 µM, first compound 3 µM): 65.7%
viability, T/C (second compound 3.16 µM, first compound 0.00949 µM): 98.6%
viability, T/C (second compound 3.16 µM, first compound 0.03 µM): 95.5%
viability, T/C (second compound 3.16 µM, first compound 0.0949 µM): 78.8%
viability, T/C (second compound 3.16 µM, first compound 0.3 µM): 69.6%
viability, T/C (second compound 3.16 µM, first compound 0.949 µM): 57.8%
viability, T/C (second compound 3.16 µM, first compound 3 µM): 60.1%
viability, T/C (second compound 10 µM, first compound 0.00949 µM): 49.1%
viability, T/C (second compound 10 µM, first compound 0.03 µM): 62.3%
viability, T/C (second compound 10 µM, first compound 0.0949 µM): 47.9%
viability, T/C (second compound 10 µM, first compound 0.3 µM): 45.8%
viability, T/C (second compound 10 µM, first compound 0.949 µM): 43.3%
viability, T/C (second compound 10 µM, first compound 3 µM): 40.6%

COc1cc(Nc2ncc3c(n2)-c2ccc(Cl)cc2C(c2c(F)cccc2OC)=NC3)ccc1C(=O)O + Cc1ccccc1N=Nc1ccc(NC(=O)c2ccnn2C)c(C)c1
IC50 (second compound 0.1 µM): 4100 nM
IC50 (second compound 0.316 µM): > 10000 nM
IC50 (second compound 1 µM): 5480 nM
IC50 (second compound 3.16 µM): 1980 nM
IC50 (second compound 10 µM): < 31.6 nM
viability, T/C [1]: 61.3%
viability, T/C [2]: 51.4%
viability, T/C [3]: 59.2%
viability, T/C [4]: 59.2%
viability, T/C [5]: 52.2%
viability, T/C [6]: 38.9%
viability, T/C [7]: 62.9%
viability, T/C [8]: 48.8%
viability, T/C [9]: 57.8%
viability, T/C [10]: 50.6%
viability, T/C [11]: 53.5%
viability, T/C [12]: 47.6%
viability, T/C [13]: 56.8%
viability, T/C [14]: 54.8%
viability, T/C [15]: 65.9%
viability, T/C [16]: 58.1%
viability, T/C [17]: 46.2%
viability, T/C [18]: 49%
viability, T/C [19]: 51.4%
viability, T/C [20]: 46.6%
viability, T/C [21]: 55%
viability, T/C [22]: 54.4%
viability, T/C [23]: 47.1%
viability, T/C [24]: 43.3%
viability, T/C [25]: 45.6%
viability, T/C [26]: 40.9%
viability, T/C [27]: 40.6%
viability, T/C [28]: 39.6%
viability, T/C [29]: 36.5%
viability, T/C [30]: 37.7%

Cn1ncnc1C1c2n[nH]c(=O)c3cc(F)cc(c23)NC1c1ccc(F)cc1 (stereo not given) + Cc1ccccc1N=Nc1ccc(NC(=O)c2ccnn2C)c(C)c1
IC50 (second compound 0.1 µM): 91.3 nM
IC50 (second compound 0.316 µM): > 100 nM
IC50 (second compound 1 µM): > 100 nM
IC50 (second compound 3.16 µM): > 100 nM
IC50 (second compound 10 µM): < 0.316 nM
viability, T/C (second compound 0.1 µM, first compound 0.000316 µM): 85.6%
viability, T/C (second compound 0.1 µM, first compound 0.001 µM): 99.2%
viability, T/C (second compound 0.1 µM, first compound 0.00316 µM): 89.9%
viability, T/C (second compound 0.1 µM, first compound 0.01 µM): 93%
viability, T/C [1]: 68.7%
viability, T/C [2]: 48.4%
viability, T/C (second compound 0.316 µM, first compound 0.000316 µM): 110%
viability, T/C (second compound 0.316 µM, first compound 0.001 µM): 94.5%
viability, T/C (second compound 0.316 µM, first compound 0.00316 µM): 86%
viability, T/C (second compound 0.316 µM, first compound 0.01 µM): 87.7%
viability, T/C [7]: 76.3%
viability, T/C [8]: 54.9%
viability, T/C (second compound 1 µM, first compound 0.000316 µM): 98.5%
viability, T/C (second compound 1 µM, first compound 0.001 µM): 82.9%
viability, T/C (second compound 1 µM, first compound 0.00316 µM): 96.6%
viability, T/C (second compound 1 µM, first compound 0.01 µM): 83.9%
viability, T/C [13]: 67.5%
viability, T/C [14]: 53.8%
viability, T/C (second compound 3.16 µM, first compound 0.000316 µM): 77.6%
viability, T/C (second compound 3.16 µM, first compound 0.001 µM): 87.5%
viability, T/C (second compound 3.16 µM, first compound 0.00316 µM): 93%
viability, T/C (second compound 3.16 µM, first compound 0.01 µM): 83.5%
viability, T/C [19]: 67.4%
viability, T/C [20]: 52.1%
viability, T/C (second compound 10 µM, first compound 0.000316 µM): 50.1%
viability, T/C (second compound 10 µM, first compound 0.001 µM): 49.9%
viability, T/C (second compound 10 µM, first compound 0.00316 µM): 46.5%
viability, T/C (second compound 10 µM, first compound 0.01 µM): 47.2%
viability, T/C [25]: 50.2%
viability, T/C [26]: 44.2%

NS(=O)(=O)OCC1CC(n2ccc3c(NC4CCc5ccccc54)ncnc32)CC1O (stereo not given) + Cc1ccccc1N=Nc1ccc(NC(=O)c2ccnn2C)c(C)c1
IC50 (second compound 0.1 µM): 94.9 nM
IC50 (second compound 0.316 µM): 90.1 nM
IC50 (second compound 1 µM): 88.2 nM
IC50 (second compound 3.16 µM): 80.5 nM
IC50 (second compound 10 µM): 57.6 nM
viability, T/C [1]: 93.2%
viability, T/C [2]: 47.9%
viability, T/C [3]: 16.2%
viability, T/C [4]: 6.95%
viability, T/C [5]: 4.75%
viability, T/C [6]: 5.39%
viability, T/C [7]: 94.9%
viability, T/C [8]: 45.5%
viability, T/C [9]: 14.1%
viability, T/C [10]: 6.56%
viability, T/C [11]: 4.96%
viability, T/C [12]: 5.27%
viability, T/C [13]: 96.5%
viability, T/C [14]: 44.2%
viability, T/C [15]: 16.7%
viability, T/C [16]: 7.31%
viability, T/C [17]: 5.64%
viability, T/C [18]: 6.16%
viability, T/C [19]: 84.5%
viability, T/C [20]: 42%
viability, T/C [21]: 14.1%
viability, T/C [22]: 6.49%
viability, T/C [23]: 4.75%
viability, T/C [24]: 5.47%
viability, T/C [25]: 67%
viability, T/C [26]: 34.3%
viability, T/C [27]: 13.7%
viability, T/C [28]: 4.96%
viability, T/C [29]: 3.85%
viability, T/C [30]: 4.91%
